{"source": "patent US20230226064A1", "about": "“ORAL LIQUID FORMULATIONS OF RUXOLITINIB” (Novartis AG, priority 2020, published 2023)", "test": "Solubility profile of ruxolitinib phosphate in buffer solutions at 37° C.", "type": "physicochemical", "excerpt": "Development of stable and palatable oral solution formulation for ruxolitinib is challenging due to pH dependent solubility (see Table 2) of the drug substance with mainly oxidation degradation products at higher temperatures/moisture content and/or in presence of oxygen.", "data": [{"smiles": "N#CC[C@H](C1CCCC1)n1cc(-c2ncnc3[nH]ccc23)cn1", "note": "[ruxolitinib phosphate]", "values": [{"measurement": "solubility", "setting": "aqueous buffer, Buffer solution pH 3.3", "value": "≥ 520", "unit": "µg/mL"}, {"measurement": "solubility", "setting": "aqueous buffer, Buffer solution pH 4.3", "value": 350, "unit": "µg/mL"}, {"measurement": "solubility", "setting": "aqueous buffer, Buffer solution pH 5.3", "value": 290, "unit": "µg/mL"}, {"measurement": "solubility", "setting": "aqueous buffer, Buffer solution pH 7.5", "value": 150, "unit": "µg/mL"}, {"measurement": "solubility", "setting": "aqueous buffer, Buffer solution pH 8.0", "value": 170, "unit": "µg/mL"}, {"measurement": "solubility", "setting": "simulated gastric fluid, Buffer solution pH 1.0", "value": "≥ 540", "unit": "µg/mL"}]}]}
